Source: publication PMC8319603, “Developing C2-Aroyl Indoles as Novel Inhibitors of IDO1 and Understanding Their Mechanism of Inhibition via Mass Spectroscopy, QM/MM Calculations and Molecular Dynamics Simulation” (Frontiers in Chemistry, 2021)
pIC50: −log10 of the molar value. Read-outs that look alike come from different tables or passages of the source.

Experiments:
[1] = molecular target: T1, recombinant protein of human IDO1 enzyme (Homo sapiens, UniProt P14902); assay: IDO1 enzymatic assay in vitro (kynurenine formation, absorbance 492 nm); type: biochemical; conditions: for pIC50: read-out: IC50 against IDO1
T1 construct: purchased Biovision P1096
Experimental: The recombinant human IDO/TDO protein were purchased from Biovision (Catalog no.: P1096 human recombinant IDO1 and CSB-YP023351HU human recombinant TDO2). All the other HPLC grade solvent were purchased from Merck Pvt. Ltd. The IDO/TDO assays were performed according to the reported procedures.1 and 2, the details of which is mentioned in the SI.
20 µL of IDO1/TDO2 protein (1µg/ml concentration) was added and incubates for 10 min. After that 20 µL of 2 mM L-tryptophan was added and then treated with different test compounds concentration […]
The plate was then sealed well for 2hr incubation process at 37°C. After incubation, 40 µL of 30% TCA solution was added and again incubated for 15 min at 60 °C, the samples were centrifuged for 15 min at 13000 rpm at 4 °C. The 100 µL of supernatant was transferred in fresh 96 well plate and treated with 100 µL of freshly prepared 2% Ehlrich reagent which was then analyzed by absorbance plate reader at 492 nm to measure the extent of kynurenine formation. The DMSO content in the sample was 0.005 %. The final concentration of the compound in deep well plate was 5 µM. The IC50 values were calculated in triplicate by using GraphPadPrism […]
1. Water was substituted with L-tryphtophan
2. Water was substituted with L-tryhtophan and rhIDO/ rhTDO protein.
A = IDO activity in presence of inhibitor

[2] = molecular target: T2, indolamine-2, 3-dioxygenase one (IDO1) (Homo sapiens, UniProt P14902); assay: Inhibition kinetics (Lineweaver-Burk plots); type: biochemical; conditions: L-tryptophan 1–4 mM, inhibitor 0–1.5 µM; with respect to L-tryptophan
T2 construct: purchased Biovision P1096
Experimental: The IDO1 activity assay was performed to measure the formation of […] by absorbance plate reader at 492 nm. The mode of inhibition of the screened compounds was determined from the Lineweaver-Burk plots, which are the double reciprocal plots of enzyme reaction velocities (1/V) vs. substrate concentrations (1/[S]), where V and [S] represent the initial rate of enzymatic reaction and L-tryptophan concentration respectively.

[3] = recombinant human IDO1, dose response study

T1 sequence (P14902 whole entry): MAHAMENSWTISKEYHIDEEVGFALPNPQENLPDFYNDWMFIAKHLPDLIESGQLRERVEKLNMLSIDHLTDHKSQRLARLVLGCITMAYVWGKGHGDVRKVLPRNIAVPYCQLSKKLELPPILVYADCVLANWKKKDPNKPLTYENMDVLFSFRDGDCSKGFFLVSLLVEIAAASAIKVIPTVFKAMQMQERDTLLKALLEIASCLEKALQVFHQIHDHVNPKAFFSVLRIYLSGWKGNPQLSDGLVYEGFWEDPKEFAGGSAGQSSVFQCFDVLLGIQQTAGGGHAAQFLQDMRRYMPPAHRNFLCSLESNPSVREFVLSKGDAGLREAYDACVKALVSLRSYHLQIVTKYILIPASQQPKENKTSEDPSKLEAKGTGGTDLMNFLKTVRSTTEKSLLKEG
T2 sequence (P14902 whole entry): as above

| SMILES | Percentage inhibition of IDO1 ([1]; 5 μM concentration of compound, 5 µM) [%] | inhibition at 5 µM ([1]; 5 μM concentration of compound, read-out: Percentage inhibition of IDO1) [%] | pIC50 [1, 3] | Selectivity for IDO over TDO ([1]; IDO vs TDO) | pIC50 ([1]; recombinant human IDO1) | Mode of inhibition of IDO1 [2] |
| --- | --- | --- | --- | --- | --- | --- |
| CC(=O)NCCc1c(C(=O)c2cc(C(F)(F)F)cc(C(F)(F)F)c2)[nH]c2ccccc12 [8a] | 37 | ~40 | 5.84 |  |  |  |
| CC(=O)NCCc1c(C(=O)c2ccc([N+](=O)[O-])cc2)[nH]c2ccccc12 [8d] |  |  |  | reasonable selectivity | 6.74 | competitive |
| COC(=O)NCCc1c(C(=O)c2ccccc2)[nH]c2ccccc12 [8e] |  |  | 5.82 |  |  |  |
